For assay [1], the system named is sodium channel of synaptosome of rat cerebral cortex. The assay is described as follows: Assessment for sodium channel of synaptosome of rat cerebral cortex (SBFI). It is filed as cell-based. How it is done:
In the present experiment the synaptosome which was extracted from rat cerebral cortex was used. After sodium ion-sensitive dye, SBFI was taken in, the synaptosome was reacted with the respective tested substances (3 samples in 6 concentrations) at room temperature for 15 minutes in a 96 wells plate. The sodium channel inhibitory activity was measured using FDSS2000 of HAMAMATSU Photonics Co., Ltd. The sodium ion concentration in the synaptosome was measured once per 5 seconds using the fluorescent intensity of SBFI as an index. After measuring the control value 10 times, Veratridine was added so that the final concentration was 20 μM, and further measurement was carried out 30times. The inhibitory activity value of the tested substances for sodium channel was calculated, setting the action only by a measurement solution without the tested substance, as 0%, and the inhibitory activity caused by 2 μM of TTX which was a positive control, as 100%, as an inhibitory activity value corresponding to this action, using the increase of the fluorescent intensity of SBFI to the control value which was generated after addition of Veratridine, as an index.

Assay [2] has as its system spontaneous nerve discharge of cut left saphenous nerve. The assay is described as follows: Suppression of spontaneous nerve discharge (ectopic firing). Type of assay: in vivo. To be noted: Test Example 5, rat, intravenous catheter, urethane anesthetized; for ED50: read-out: Ectopic Firing (ID50 mg/kg). How it is done:
In order to assess the suppression action for spontaneous nerve discharge, the experiment was carried out by a method below, referring to “Burchiel, K J., Exp. Nuerol., 102, 249-253 (1988)”. Namely, for the rat in which spontaneous discharge was observed, the left saphenous nerve was cut off nearby knee articulatio before 1 week or more, and around 3 mm of the nerve was cut off so that the nerve was not adhered again. The left saphenous nerve was exposed under urethane (1 g/kg body weight) anesthetized, and about 1 cm of adjacent portion from the cut portion was peeled from a periphery tissue. Further, a catheter was preliminarily inserted in the vein of a right neck for administration of a compound. The peeled nerve was mounted on a platinum hook electrode, and liquid paraffin was put on it so that the nerve was not dried. The electrode was connected with a fine electrode amplifier, and the value was recorded on a computer through an AD/converter from an oscilloscope. The nerve discharge recorded was assessed by the number of ignition per 10 seconds using an analysis soft (AcqKnowledge).

Another assay relates to rabbit atrial muscle. The assay is described as follows: Assessment for rabbit atrial muscle, Vmax. The conditions noted are these: Test Example 4, right atrial muscle, stimulation frequency 4 Hz, 15 minutes. How it is done: The specimen of the right atrial muscle which was enucleated from rabbit was used for the present experiment. The electrical stimulation was applied for the right atrial muscle which was enucleated, under conditions: a stimulation duration of 1 mess; a stimulation frequency of 4 Hz; and a stimulation intensity of about 1.2-fold of the threshold. The stimulation was provided from 30 minutes to 60 minutes before start of the experiment, and the condition of the specimen was stabilized. The action potential was recorded according to a glass microelectrode method. 3 M KCl was charged in the glass electrode, inserted in the specimen of the right atrium, and the action potential was recorded. Vmax is the parameter of the maximum upstroke slope of the action potential recorded, and a value which was automatically calculated by an action potential analysis soft (CAPA 1.23 manufactured by Physiotec. Co., Ltd.) was used. After the action potential in a normal Tyrode solution was recorded as control, the action potential after flowing the tested substances at respective concentrations for 15 minutes was recorded. The action of the tested substance for Vmax was calculated as an IC50 value.

Where [3] appears, read: read-out: SBFI (IC50 μM); Test Example 3; Veratridine 20 μM; 2 μM TTX as 100%.
The mark [4] stands for this setting: Test Example 3; Veratridine 20 μM; 2 μM TTX as 100%; read-out: SBFI (IC50 μM).

Where two headings read alike, the source gives them in different places.

Broadly, the IC50 is the point on the concentration scale where inhibition reaches its midpoint.

As for `Cc1ccccc1CCC1CCN(Cc2ccc[nH]c2=O)CC1` [Example 285, 1-[(2-Oxo-1,2-dihydro-3-pyridinyl)methyl]-4-[2-(2-methylphenyl)ethyl]piperidine], the half-maximal inhibitory concentration (IC50) came to 7.7 µM in assay [1] (setting [3]) and 2.9 µM in the assay with rabbit atrial muscle (Oryctolagus cuniculus, 0.25 h). Besides, the ED50 in assay [2] was 0.13 mg/kg.
On to `O=c1[nH]cc(Br)cc1CN1CCC(CCc2cccc3c2OCO3)CC1` [Example 291, 1-[(5-Bromo-2-oxo-1,2-dihydro-3-pyridinyl)methyl]-4-[2-[2,3-(methylenedioxy)phenyl]ethyl]piperidine], for which the values for the IC50 (in assay [1] (setting [4]); in the assay with rabbit atrial muscle) were 14.5 µM and 6 µM, respectively. For the same compound, the “Ectopic Firing (ID50 mg/kg)” value in assay [2] was 0.1 mg/kg.
On to `O=c1[nH]cc(Cl)cc1CN1CCC(CCc2ccccc2OCc2ccccc2)CC1` [Example 299], for which the half-inhibitory concentration (IC50) was found to be 5.3 µM in assay [1] (setting [3]) and 50 µM in the assay with rabbit atrial muscle (Oryctolagus cuniculus, 0.25 h). The ED50 in assay [2] was 0.1 mg/kg.
On to `O=c1[nH]cc(Cl)cc1CN1CCC(CCc2ccccc2OCC2CCCCC2)CC1` [Example 301, 1-[(5-Chloro-2-oxo-1,2-dihydro-3-pyridinyl)methyl]-4-[2-[2-(cyclohexylmethyloxy)phenyl]ethyl]piperidine], for which the IC50 in assay [1] (setting [3]) was 6.5 µM; in the assay with rabbit atrial muscle (Oryctolagus cuniculus, 0.25 h), 100 µM. Besides, the ED50 in assay [2] amounted to 0.18 mg/kg.
For `O=C(O)C(=O)O.O=c1[nH]cccc1CN1CCC(CCc2ccccc2OCC2CCCCC2)CC1` [Example 302, 1-[(2-Oxo-1,2-dihydro-3-pyridinyl)methyl]-4-[2-[2-(cyclohexylmethyloxy)phenyl]ethyl]piperidine oxalate], in that order: 1.2 µM, 22.5 µM and 0.14 mg/kg.
Consider `O=C(O)C(=O)O.O=c1[nH]cccc1CN1CCC(CCc2ccccc2CCc2ccccc2)CC1` [Example 306, 1-[(2-Oxo-1,2-dihydro-3-pyridinyl)methyl]-4-[[2-(2-phenylethyl)phenyl]ethyl]piperidine oxalate], for which the IC50 came out at 1.3 µM in assay [1] (setting [3]) and 1.9 µM in the assay with rabbit atrial muscle (Oryctolagus cuniculus, 0.25 h). In assay [2], the ED50 came out at 0.17 mg/kg.
`CC(C)COc1ccccc1CCC1CCN(Cc2ccc[nH]c2=O)CC1.O=C(O)C(=O)O` [Example 308, 1-[(2-Oxo-1,2-dihydro-3-pyridinyl)methyl]-4-[2-[2-(isobutyloxy)phenyl]ethyl]piperidine oxalate]: the 50% inhibitory concentration (IC50) in assay [1] (setting [3]) worked out at 0.5 µM; with rabbit atrial muscle (Oryctolagus cuniculus, 0.25 h), 3.1 µM. Besides, the ED50 in assay [2] was 0.22 mg/kg.
For `O=C(O)C(=O)O.O=c1[nH]cccc1CN1CCC(CCc2ccccc2OCCc2ccccc2)CC1` [Example 309, 1-[(2-Oxo-1,2-dihydro-3-pyridinyl)methyl]-4-[2-[2-(2-phenylethoxy)phenyl]ethyl]piperidine oxalate], in that order: 1 µM, 6.3 µM and 0.19 mg/kg.
For the compound `O=C(O)C(=O)O.O=c1[nH]cccc1CN1CCC(CCc2ccccc2OCC2CCCC2)CC1` [Example 311, 1-[(2-Oxo-1,2-dihydro-3-pyridinyl)methyl]-4-[2-[2-(cyclopentylmethyloxy)phenyl]ethyl]piperidine oxalate], the IC50 in assay [1] (setting [3]) came to 0.7 µM; in the assay on rabbit atrial muscle (Oryctolagus cuniculus, 0.25 h), 2 µM. Further, the ED50 in assay [2] was found to be 0.13 mg/kg.
Turning to `Cl.Cl.O=c1[nH]cccc1CN1CCC(CCc2ccccc2NCc2ccccc2)CC1` [Example 313, 1-[(2-Oxo-1,2-dihydro-3-pyridinyl)methyl]-4-[2-[2-(benzylamino)phenyl]ethyl]piperidine dihydrochloride], the 50% inhibitory concentration (IC50) worked out at 1.5 µM in assay [1] (setting [3]) and 8.6 µM in the assay on rabbit atrial muscle (Oryctolagus cuniculus, 0.25 h). The ED50 in assay [2] came to 0.16 mg/kg.
As for `O=c1[nH]cc(Cl)cc1CN1CCC(CCc2cccc3c2OCO3)CC1` [Example 319], the IC50 in assay [1] (setting [3]) was 10.2 µM; with rabbit atrial muscle (Oryctolagus cuniculus, 0.25 h) it was 10 µM. In addition, the ED50 in assay [2] worked out at 0.082 mg/kg.
Turning to `O=c1[nH]cc(Cl)cc1CN1CCC(CCc2ccccc2F)CC1` [Example 320], the concentration for half-maximal inhibition (IC50) in assay [1] (setting [3]) amounted to 17 µM; in the assay on rabbit atrial muscle (Oryctolagus cuniculus, 0.25 h), 14.8 µM. Also, the ED50 in assay [2] was determined as 0.041 mg/kg.
On to `CC(C)COc1ccccc1CCC1CCN(Cc2cc(Cl)c[nH]c2=O)CC1.O=C(O)C(=O)O` [Example 323, 1-[(5-Chloro-2-oxo-1,2-dihydro-3-pyridinyl)methyl]-4-[2-[2-(isobutyloxy)phenyl]ethyl]piperidine oxalate], for which the IC50 was determined as 4.8 µM in assay [1] (setting [3]) and 3.9 µM with rabbit atrial muscle (Oryctolagus cuniculus, 0.25 h). Also, the ED50 in assay [2] was determined as 0.083 mg/kg.
In the case of `O=C(O)C(=O)O.O=c1[nH]cccc1CN1CCC(CCc2ccccc2OC(F)(F)F)CC1` [Example 326, 1-[(2-Oxo-1,2-dihydro-3-pyridinyl)methyl]-4-[2-[2-(trifluoromethoxy)phenyl]ethyl]piperidine oxalate], the IC50 in assay [1] (setting [3]) amounted to 1.9 µM; with rabbit atrial muscle (Oryctolagus cuniculus, 0.25 h), 3.98 µM. Also, the ED50 in assay [2] was found to be 0.18 mg/kg.
`O=c1[nH]cccc1CN1CCC(C=C(c2ccccc2)c2ccccc2)CC1` [Example 333, 1-[(2-Oxo-1,2-dihydro-3-pyridinyl)methyl]-4-(2,2-diphenyl-1-ethenyl)piperidine]: the half-inhibitory concentration (IC50) in assay [1] (setting [3]) was 5.4 µM; in the assay on rabbit atrial muscle (Oryctolagus cuniculus, 0.25 h), 4.9 µM. Moreover, in assay [2], the ED50 was 0.15 mg/kg.
Take `O=c1[nH]cc(F)cc1CN1CCC(/C=C/c2ccccc2F)CC1` [Example 335, 1-[(5-Fluoro-2-oxo-1,2-dihydro-3-pyridinyl)methyl]-4-[(E)-2-(2-fluorophenyl)-1-ethenyl]piperidine]: in assay [2], the ED50 was found to be 0.034 mg/kg. Besides, in the assay on rabbit atrial muscle (Oryctolagus cuniculus, 0.25 h), inhibition was half-maximal at 7.8 µM (IC50).
Consider `O=C(O)C(=O)O.O=c1[nH]cccc1CN1CCC(/C=C/c2ccccc2OCc2ccccc2)CC1` [Example 338, 1-[(2-Oxo-1,2-dihydro-3-pyridinyl)methyl]-4-[(E)-2-[2-(benzyloxy)phenyl]-1-ethenyl]piperidine oxalate], for which the 50% inhibitory concentration (IC50) in assay [1] (setting [3]) came out at 1.2 µM; in the assay on rabbit atrial muscle (Oryctolagus cuniculus, 0.25 h), 11.4 µM. The ED50 in assay [2] was found to be 0.19 mg/kg.
In the case of `O=C(O)C(=O)O.O=c1[nH]cccc1CN1CCC(/C=C/c2ccccc2OCC2CCCCC2)CC1` [Example 343, 1-[(2-Oxo-1,2-dihydro-3-pyridinyl)methyl]-4-[(E)-2-[(2-cyclohexylmethyloxy)phenyl]-1-ethenyl]piperidine oxalate], the “Ectopic Firing (ID50 mg/kg)” value in assay [2] is reported as 0.13 mg/kg. Moreover, in the assay on rabbit atrial muscle, half-maximal inhibition (IC50) was put at 30 µM.
In the same order, the values of `O=C(O)C(=O)O.O=c1[nH]cccc1CN1CCC(/C=C\c2ccccc2OCC2CCCCC2)CC1` [Example 344, 1-[(2-Oxo-1,2-dihydro-3-pyridinyl)methyl]-4-[(Z)-2-[(2-cyclohexylmethyloxy)phenyl]-1-ethenyl]piperidine oxalate] are 0.19 mg/kg and 30 µM.
Regarding `O=c1[nH]cc(Cl)cc1CN1CCC(COc2ccc(F)cc2F)CC1` [Example 370, 1-[(5-Chloro-2-oxo-1,2-dihydro-3-pyridinyl)methyl]-4-[(2,4-difluorophenoxy)methyl]piperidine], the half-inhibitory concentration (IC50) was 33.6 µM in assay [1] (setting [3]) and 45 µM with rabbit atrial muscle (Oryctolagus cuniculus, 0.25 h). Besides, the ED50 in assay [2] turned out to be 0.081 mg/kg.
Take `O=c1[nH]cc(Cl)cc1CN1CCC(COc2cc(F)ccc2F)CC1` [Example 372, 1-[(5-Chloro-2-oxo-1,2-dihydro-3-pyridinyl)methyl]-4-[(2,5-difluorophenoxy)methyl]piperidine]: the IC50 in assay [1] (setting [3]) turned out to be 21.8 µM; with rabbit atrial muscle (Oryctolagus cuniculus, 0.25 h), 9.3 µM. Also, in assay [2], the ED50 was determined as 0.11 mg/kg.
As for `O=c1[nH]cccc1CN1CCC(COc2ccccc2Cl)CC1` [Example 376, 1-[(2-Oxo-1,2-dihydro-3-pyridinyl)methyl]-4-[(2-chlorophenoxy)methyl]piperidine], the IC50 in assay [1] (setting [3]) was 20.3 µM. For the same compound, the ED50 in assay [2] turned out to be 0.07 mg/kg.
In the case of `O=c1[nH]c2ccccc2cc1CN1CCC(CCc2cccc3c2OCO3)CC1` [Example 380, 1-[(2-Oxo-1,2-dihydro-3-quinolinyl)methyl]-4-[2-[2,3-(methylenedioxy)phenyl]ethyl]piperidine], the figures for the IC50 (in assay [1] (setting [4]); with rabbit atrial muscle) were 3.9 µM and 8.6 µM, respectively. For the same compound, the “Ectopic Firing (ID50 mg/kg)” value in assay [2] was 0.1 mg/kg.

For the origin of these results see patent US6784192B2, “Piperidine compound and pharmaceutical composition thereof” (Eisai Co., Ltd., priority 2000, dated 2004).
